Tests used:
Experiment in all cases: relative viability (nuclei count vs DMSO), 5 days (fraction); higher = more cells survive
TGX 221 + AZD7762 = compound: CC1=CN2C(=O)C=C(N=C2C(=C1)C(C)NC3=CC=CC=C3)N4CCOCC4 [TGX 221] + NC(=O)Nc1cc(-c2cccc(F)c2)sc1C(=O)N[C@H]1CCCNC1 [AZD7762] (partner 0.2 µM)
Method in brief: (§1)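 Lung cancer cell lines in 1536-well plates got either a single drug or a fixed anchor-drug dose together with five library-drug doses (not always all listed) in √10 steps, by pin tool, on the day after seeding. Nuclei were counted after 5 days, and relative viability is the treated-to-vehicle ratio of nuclei counts. Values are medians of duplicate plates.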

[1] = compound: C1=CC=C(C(=C1)C2=CC=C(C=C2)C3=CSC4=C3C(=C(C(=O)N4)C#N)O)O + CC(=O)Nc1cccc(-n2c(=O)n(C3CC3)c(=O)c3c(Nc4ccc(I)cc4F)n(C)c(=O)c(C)c32)c1 [Trametinib] (partner 0.02 µM)
Method in brief: as §1

[2] = compound: C1=CC=C(C(=C1)C2=CC=C(C=C2)C3=CSC4=C3C(=C(C(=O)N4)C#N)O)O + Nc1nc2[nH]cc(CCc3ccc(C(=O)N[C@@H](CCC(=O)O)C(=O)O)cc3)c2c(=O)[nH]1 [Pemetrexed] (partner 0.2 µM)
Method in brief: as §1

TGX 221 + Luminespib = compound: CC1=CN2C(=O)C=C(N=C2C(=C1)C(C)NC3=CC=CC=C3)N4CCOCC4 [TGX 221] + CCNC(=O)c1noc(-c2cc(C(C)C)c(O)cc2O)c1-c1ccc(CN2CCOCC2)cc1 [Luminespib] (partner 0.01 µM)
Method in brief: as §1

Cell Line	relative viability (TGX 221 + AZD7762; first compound 0.08 µM)	relative viability (TGX 221 + AZD7762; first compound 0.253 µM)	relative viability (TGX 221 + AZD7762; first compound 0.8 µM)	relative viability (TGX 221 + AZD7762; first compound 2.53 µM)	relative viability (TGX 221 + AZD7762; first compound 8 µM)	relative viability ([1]; first compound 0.08 µM)	relative viability ([1]; first compound 0.253 µM)	relative viability ([1]; first compound 0.8 µM)	relative viability ([1]; first compound 2.53 µM)	relative viability ([1]; first compound 8 µM)	relative viability ([2]; first compound 0.08 µM)	relative viability ([2]; first compound 0.253 µM)	relative viability ([2]; first compound 0.8 µM)	relative viability ([2]; first compound 2.53 µM)	relative viability ([2]; first compound 8 µM)	relative viability (TGX 221 + Luminespib; first compound 0.08 µM)	relative viability (TGX 221 + Luminespib; first compound 0.253 µM)	relative viability (TGX 221 + Luminespib; first compound 0.8 µM)	relative viability (TGX 221 + Luminespib; first compound 2.53 µM)	relative viability (TGX 221 + Luminespib; first compound 8 µM)
NCI-H650	0.769	0.902	0.926	1.12	0.904	1.11	1.01	0.991	1.02	0.987	0.944	1.05	0.972	0.979	0.862	0.759	0.774	0.783	0.721	0.753
NCI-H460	0.564	0.632	0.559	0.665	0.655	0.0954	0.101	0.201	0.108	0.151	0.0846	0.0612	0.0666	0.0616	0.0618	0.0366	0.029	0.0351	0.04	0.028
HOP-62	0.424	0.545	0.661	0.788	0.641	0.38	0.431	0.41	0.378	0.337	0.364	0.336	0.301	0.348	0.279	0.919	0.951	0.981	0.88	0.632
NCI-H1975	0.688	0.694	0.668	0.662	0.557	0.348	0.412	0.337	0.311	0.345	0.312	0.288	0.302	0.307	0.295	0.151	0.2	0.138	0.2	0.145
NCI-H838	0.892	0.911	0.877	0.77	0.849	0.488	0.485	0.654	0.456	0.331	0.209	0.291	0.253	0.233	0.243	0.219	0.335	0.296	0.344	0.266
NCI-H2085	0.96	0.769	0.583	0.37	0.397	0.55	0.772	0.615	0.484	0.598	0.838	1.01	0.801	0.886	0.818	0.518	0.361	0.335	0.223	0.319
NCI-H3122	0.974	0.925	1.01	0.994	0.981	0.289	0.233	0.223	0.253	0.295	0.19	0.201	0.22	0.213	0.19	0.1	0.0831	0.0649	0.0793	0.116
HCC-15	1.1	1.02	0.673	1.21	1.13	0.39	0.369	0.409	0.427	0.358	0.237	0.232	0.213	0.242	0.215	0.294	0.335	0.373	0.204	0.362
LU99A	0.263	0.387	0.391	0.402	0.305	0.566	0.589	0.596	0.585	0.605	0.191	0.138	0.265	0.178	0.335	0.251	0.31	0.208	0.249	0.316
NCI-H2405	0.706	0.665	0.724	0.665	0.547	0.55		0.639	0.601	0.574	1.01		1.07	0.975	0.948	0.622	0.533	0.599	0.623	0.47
NCI-H1915	0.655	0.665	0.665	0.596	0.712	0.304	0.303	0.505	0.314	0.316	0.437	0.443	0.486	0.481	0.506	0.726	0.747	0.745	0.757	0.725
NCI-H322M	0.578	0.569	0.636	0.571	0.546	0.501	0.464	0.548	0.539	0.503	0.561	0.574	0.657	0.576	0.559	0.735	0.802	0.776	0.812	0.644
LK-2	0.377	0.434	0.436	0.395	0.521	0.594	0.609	0.95	0.745	0.598	0.168	0.245	0.236	0.325	0.196	0.17	0.2	0.187	0.214	0.207
LXF-289	1.12	1.12	1.06	1.03	1.08	0.682	0.695	0.656	0.722	0.755	0.818	0.871	0.909	0.926	0.89	0.667	0.686	0.77	0.47	0.513
PC-3 [JPC-3]	0.689	0.72	0.817	0.755	0.758	0.756	0.789	0.683	0.701	0.692	1.08	1.19	1.06	0.942	0.98	0.584	0.651	0.693	0.73	0.681
BEN	0.639	0.695	0.737	0.697	0.661	1.13	1.08	1.01	0.967	1.02	0.694	0.786	0.761	0.857	0.761	0.26	0.234	0.4	0.378	0.332

Cell Line	relative viability (TGX 221 + AZD7762; first compound 0.08 µM)	relative viability (TGX 221 + AZD7762; first compound 0.253 µM)	relative viability (TGX 221 + AZD7762; first compound 0.8 µM)	relative viability (TGX 221 + AZD7762; first compound 2.53 µM)	relative viability (TGX 221 + AZD7762; first compound 8 µM)	relative viability ([1]; first compound 0.08 µM)	relative viability ([1]; first compound 0.253 µM)	relative viability ([1]; first compound 0.8 µM)	relative viability ([1]; first compound 2.53 µM)	relative viability ([1]; first compound 8 µM)	relative viability ([2]; first compound 0.08 µM)	relative viability ([2]; first compound 0.253 µM)	relative viability ([2]; first compound 0.8 µM)	relative viability ([2]; first compound 2.53 µM)	relative viability ([2]; first compound 8 µM)	relative viability (TGX 221 + Luminespib; first compound 0.08 µM)	relative viability (TGX 221 + Luminespib; first compound 0.253 µM)	relative viability (TGX 221 + Luminespib; first compound 0.8 µM)	relative viability (TGX 221 + Luminespib; first compound 2.53 µM)	relative viability (TGX 221 + Luminespib; first compound 8 µM)
NCI-H1355	0.691	0.679	0.775	0.65	0.675	0.484	0.495	0.416	0.432	0.454	1.01	1.12	1.13	1.04	1.11	0.713	0.59	0.674	0.588	0.621
NCI-H441	1.22	1.12	0.925	1.07	1.24	0.35	0.443	0.431	0.496	0.362	0.26	0.282	0.232	0.237	0.267	0.554	0.307	0.364	0.312	0.278
SW 900		0.598	0.515	0.444	0.469		1.06	0.947	0.762	0.646		0.487	0.453	0.464	0.47	0.18	0.167	0.153	0.132	0.148
EKVX	0.685	0.607	0.601	0.579	0.594	0.358	0.436	0.462	0.378	0.318	0.425	0.497	0.399	0.465	0.336	0.832	0.724	0.791	0.715	0.738
NCI-H358	0.497	0.631	0.462	0.58	0.515	0.13	0.149	0.131	0.135	0.14	0.156	0.188	0.175	0.162	0.176	0.285	0.37	0.319	0.007	0.29
HCC-44	0.992	1.04	1.02	1.1	1.09	1.13	1.15	1.13	0.937	0.927	0.702	0.61	0.649	0.613	0.57		1.09	1.03	1.04	0.734
A-427	0.728	0.712	0.8	0.762	0.698	0.688	0.842	0.772	0.746	0.858	0.941	1.11	1.03	1.01	0.989	0.892	0.82	0.863	0.843	0.861
NCI-H23	0.277	0.213	0.269	0.217	0.201	0.333	0.321	0.383	0.379	0.261	0.536	0.619	0.59	0.627	0.653	0.196	0.225	0.217	0.21	0.208
NCI-H596	1.05	0.904	1.11	0.942	1.03	0.73	0.827	0.891	0.695	0.747	0.532	0.545	0.544	0.44	0.488	0.992	1.02	1.04	0.881	0.935
NCI-H2087	1.04	1.23	1.37	1.2	1.21	0.283	0.285	0.206	0.208	0.202	0.608	0.671	0.675	0.67	0.747	0.118	0.16	0.151	0.15	0.166
NCI-H1734	0.526	0.464	0.499	0.609	0.496	0.57	0.666	0.728	0.669	0.559	0.396	0.403	0.462	0.401	0.448	0.232	0.178	0.202	0.17	0.18
NCI-H1993	0.676	0.657	0.685	0.899	0.785	0.479	0.502	0.495	0.565	0.542	0.585	0.939	0.551	0.54	0.497	0.781	0.711	0.724	0.869	0.805
HCC-827	0.197	0.269	0.233	0.201	0.148	0.538	0.368	0.538	0.535	0.536	0.283	0.25	0.244	0.305	0.282	0.475	0.444	0.872	0.426	0.451
NCI-H1437	1.11	1.12	1.11	1.07	1.01	0.485	0.606	0.534	0.518	0.298	0.301	0.371	0.324	0.323	0.323	1.09	1.11	1.16	1.1	0.929
EPLC-272H	0.24	0.222	0.161	0.171	0.197	0.269		0.245	0.252	0.289	0.346	0.249	0.297	0.32	0.441	0.346	0.419	0.388	0.28	0.177
NCI-H2126	0.943	0.907	1.04	0.966	1.15	0.611	0.51	0.571	0.54	0.476	0.837	0.823	0.694	0.664	0.513	0.909	0.832	0.842	0.764	0.808

Reference: the supplement of paper PMC10307832
